Experimental findings from patent publication US10017501B2, “Benzimidazole derivatives as bromodomain inhibitors” (Gilead Sciences, Inc., priority 2013, dated 2018) are described below.

The test system of one test is MT-4 cells. Briefly: MT-4 proliferation assay. Type of test: cell-based, human. The method, then:
MT-4 Proliferation Assay:
Compounds were tested in a standardized high-throughput 384-well assay format. Each compound was serially diluted 3-fold in 100% DMSO in polypropylene 384-well plates using a Biomek FX Workstation, and 0.4 μL compound added to an assay plate containing 40 μL RPMI media. Compounds were arranged in a horizontal pattern, with 10 concentrations per compound, and 8 compounds added per plate. Due to low DMSO tolerability, the final DMSO concentration never exceeded 0.5% (v/v). Each assay plate contained 10 μM Puromycin and 0.5% DMSO in RPMI-1640 as positive and negative controls respectively. MT-4 cells (HTLV-1 transformed, human T lymphoblastoid cells, NIH Aids Reagent program) were added in volumes of 35 μL per well and 2,000 cells per well using a Biotek uFlow Workstation (Biotek, Winooski, Vt.), and the plates subsequently incubated for 5 days at 37° C. in an incubator set at 5% CO2 and 90% humidity.
After 5 days, 22 μL Cell Titer Glo (Promega) was added to the assay plates with a Biotek uFlow Workstation. Plates were subsequently placed on a Perkin Elmer Envision Plate Reader for 5 minutes before the luminescence signal was read.

In a further test the test system is MM.1S cells. Briefly: MM.1S viability assay (CellTiter Glo). Format: cell-based. Particulars: 72 hr, read-out: MM.1S Cell viability (EC50). The protocol:
(§1) c-Myc Down Regulation and MM.1S Viability Assays:
For cell viability in the MM.1S cell line, cells were seeded onto 384-tissue culture treated plates (Greiner) at a density of 60K cells/well containing titrations of small molecule inhibitors or DMSO (0.2%). After 72 hr incubation cells were analyzed for cell viability by addition of CellTiter Glo (Promega) to the assay plates. After 15 min incubation at room temperature the signal from the viable cells was analyzed on an Envision plate reader (Perkin Elmer). EC50 values were calculated from the fit of the dose-response curves to a four-parameter equation. All EC50 values represent geometric mean values of a minimum of four determinations. These assays generally produced results within 3-fold of the reported mean.

Test [1] deals with c-Myc produced in MM.1S cells. Briefly: c-Myc down regulation assay (MSD). Type of test: cell-based. Particulars: 24 hrs. The protocol:
as §1
An enzyme linked immunosorbent assay using the Meso Scale Diagnostic (MSD) technology was used to detect levels of c-Myc produced in MM.1S cells (ATCC). MM.1S cells were cultured in RPMI-1640 media (Corning), supplemented with 10% FBS (Hyclone), 1% penicillin-streptomycin (Cellgro), 2-mercaptoethanol (Gibco) and seeded onto 384-tissue culture treated filter binding plates (Millipore) at a density of 40K cells/well containing titrations of small molecule inhibitors or DMSO (0.4%) in a volume of […] of media. After an incubation time of 24 hrs, cells were lysed (1× lysis buffer (Thermo) supplemented with protease and phosophatase inhibitor cocktail (Thermo)) and the plates centrifuged (1000 rpm, 1 min) to capture c-Myc on MSD plates coated with a monoclonal c-Myc antibody (Origene). Assay wells were washed (3× Invitrogen wash buffer) and probed with a polyclonal c-Myc antibody (Abcam) and MSD detection antibody solution in order to detect levels of c-Myc on the MSD platform. c-Myc capture was reported in pg/ml based on a standard curve using recombinant c-Myc protein (Prosci). EC50 values were calculated from the fit of the dose-response curves to a four-parameter equation. All EC50 values represent geometric mean values of a minimum of four determinations. These assays generally produced results within 3-fold of the reported mean.

Where [2] appears, read: Homo sapiens, MT4, 120 h, Table 2, 5 days, Cell Titer Glo, read-out: MT4 Assay (EC50).

SMILES strings stand for the structures. Like-named read-outs stand apart in the source and are kept apart here.

Broadly, the EC50 is the concentration at which the effect is half-maximal. As for `Cc1noc(C)c1-c1cc(C(O)(c2nccs2)c2nccs2)c2nc(C3CC3)[nH]c2c1` [Compound 1020-103, (2-cyclopropyl-6-(3,5-dimethylisoxazol-4-yl)-1H-benzo[d]imidazol-4-yl)di(thiazol-2-yl)methanol], the EC50 was 10 nM in the test on MT-4 cells (setting [2]); 72.8 nM in the test with MM.1S cells (Homo sapiens, MM1.S); 37.3 nM in test [1] (Homo sapiens, MM1.S).
On to `Cc1noc(C)c1-c1cc(C(O)(c2ccccc2)c2cccnc2)c2nc(C3CC3)[nH]c2c1` (stereo not drawn) [Compound 1020-112, (2-cyclopropyl-6-(3,5-dimethylisoxazol-4-yl)-1H-benzo[d]imidazol-4-yl)(phenyl)(pyridin-3-yl)methanol], for which the concentration giving a half-maximal response (EC50) in the test with MT-4 cells (setting [2]) amounted to 18.2 nM; in the test on MM.1S cells (Homo sapiens, MM1.S) it was 145 nM; in test [1] (Homo sapiens, MM1.S) it was 56.7 nM.
With `Cc1noc(C)c1-c1cc(C(O)(c2ncccn2)c2ccc(F)cc2F)c2nc(C3CC3)[nH]c2c1` (stereo not drawn) [Compound 1020-257, (2-Cyclopropyl-6-(3,5-dimethylisoxazol-4-yl)-1H-benzo[d]imidazol-4-yl)(2,4-difluorophenyl)(pyrimidin-2-yl)methanol], the concentration giving a half-maximal response (EC50) with MT-4 cells (setting [2]) turned out to be 14.2 nM; in the test with MM.1S cells (Homo sapiens, MM1.S) it was 28.4 nM; in test [1] (Homo sapiens, MM1.S) it was 55.7 nM.
Regarding `Cc1noc(C)c1-c1cc(C(O)(c2ccccn2)c2ccccn2)c2nc(C3CC3)[nH]c2c1F` [Compound 1020-224, (2-cyclopropyl-6-(3,5-dimethylisoxazol-4-yl)-7-fluoro-1H-benzo[d]imidazol-4-yl)di(pyridin-2-yl)methanol], the concentration for a half-maximal effect (EC50) was found to be 20.5 nM with MT-4 cells (setting [2]); 84 nM with MM.1S cells (Homo sapiens, MM1.S); 104 nM in test [1] (Homo sapiens, MM1.S).
The corresponding values for `Cc1noc(C)c1-c1cc(C(O)(c2cccnn2)C2CCC(C)(C)O2)c2nc(C3CC3)[nH]c2c1` (single isomer, unassigned) [Compound 1020-298, (2-cyclopropyl-6-(3,5-dimethylisoxazol-4-yl)-1H-benzo[d]imidazol-4-yl)(5,5-dimethyltetrahydrofuran-2-yl)(pyridazin-3-yl)methanol] are 5.6 nM, 16.9 nM and 15.3 nM.
The corresponding values for `Cc1noc(C)c1-c1cc(C(O)(c2ccccn2)c2ccccn2)c2nc(C3CC3)[nH]c2c1` [Compound 1020-104, (2-cyclopropyl-6-(3,5-dimethylisoxazol-4-yl)-1H-benzo[d]imidazol-4-yl)di(pyridin-2-yl)methanol] are 12.6 nM, 55.5 nM and 51.5 nM.
The corresponding values for `Cc1noc(C)c1-c1cc(C(O)(c2ccccc2)c2ccccn2)c2nc(C3CC3)[nH]c2c1` (stereo not drawn) [Compound 1020-113, (2-cyclopropyl-6-(3,5-dimethylisoxazol-4-yl)-1H-benzo[d]imidazol-4-yl)(phenyl)(pyridin-2-yl)methanol] are 19.9 nM, 169 nM and 63.1 nM.
Take `Cc1noc(C)c1-c1cc(C(O)(c2ccccn2)c2ncccn2)c2nc(C3CC3)[nH]c2c1` (single isomer, unassigned) [Compound 1020-239, (2-cyclopropyl-6-(3,5-dimethylisoxazol-4-yl)-1H-benzo[d]imidazol-4-yl)(pyridin-2-yl)(pyrimidin-2-yl)methanol]: the EC50 in the test with MT-4 cells (setting [2]) was determined as 14 nM; in the test on MM.1S cells (Homo sapiens, MM1.S) it was 47.5 nM; in test [1] (Homo sapiens, MM1.S) it was 33.1 nM.
Turning to `Cc1cccc(C(O)(c2cc(-c3c(C)noc3C)cc3[nH]c(C4CC4)nc23)C2CCCO2)n1` (racemic) [Compound 1020-114, (2-cyclopropyl-6-(3,5-dimethylisoxazol-4-yl)-1H-benzo[d]imidazol-4-yl)(6-methylpyridin-2-yl)(tetrahydrofuran-2-yl)methanol], the concentration for a half-maximal effect (EC50) in the test on MT-4 cells (Homo sapiens, MT4, 120 h, read-out: MT4 Assay (EC50, nM)) worked out at 2.5 nM; in the test with MM.1S cells (Homo sapiens, MM1.S), 21.2 nM; in test [1] (Homo sapiens, MM1.S), 4.8 nM.
Take `Cc1noc(C)c1-c1cc(C(O)(c2cccnn2)C2CCCO2)c2nc(C3CC3)[nH]c2c1` (single isomer, unassigned) [Compound 1020-289, (2-cyclopropyl-6-(3,5-dimethylisoxazol-4-yl)-1H-benzo[d]imidazol-4-yl)(pyridazin-3-yl)(tetrahydrofuran-2-yl)methanol]: the EC50 was 4.2 nM in the test with MT-4 cells (Table 2, 5 days, Cell Titer Glo, read-out: MT4 Assay (EC50)); 17.8 nM with MM.1S cells; 5.7 nM in test [1].
